pIC50, pKd: −log10 of the molar value. Where two headings read alike, the source gives them in different places.
How the values were obtained:
[1] = test system: parental CHO cell line without any transfected receptors; assay: ERK1/2‐phosphorylation, parent CHO cells without transfected receptors; type: cell-based, Chinese hamster; conditions: CHO cells without transfected receptors; for ERK1/2-phosphorylation % PDBu: maximal response as % of PDBu (10μM) response; for ERK1/2-phosphorylation % PDBu / ERK1/2-phosphorylation Log EC50: mean ± s.e.m.
[2] = molecular target: T1, human α1D‐adrenoceptor (full length) (Homo sapiens, UniProt P25100); assay: ERK1/2‐phosphorylation (Surefire Alphascreen), CHO‐α1D cells; type: cell-based
T1 construct: human α1D‐adrenoceptor (full length) were used; expressed in transfected cells; host or cells: CHO-K1
T1 sequence (P25100 1-572): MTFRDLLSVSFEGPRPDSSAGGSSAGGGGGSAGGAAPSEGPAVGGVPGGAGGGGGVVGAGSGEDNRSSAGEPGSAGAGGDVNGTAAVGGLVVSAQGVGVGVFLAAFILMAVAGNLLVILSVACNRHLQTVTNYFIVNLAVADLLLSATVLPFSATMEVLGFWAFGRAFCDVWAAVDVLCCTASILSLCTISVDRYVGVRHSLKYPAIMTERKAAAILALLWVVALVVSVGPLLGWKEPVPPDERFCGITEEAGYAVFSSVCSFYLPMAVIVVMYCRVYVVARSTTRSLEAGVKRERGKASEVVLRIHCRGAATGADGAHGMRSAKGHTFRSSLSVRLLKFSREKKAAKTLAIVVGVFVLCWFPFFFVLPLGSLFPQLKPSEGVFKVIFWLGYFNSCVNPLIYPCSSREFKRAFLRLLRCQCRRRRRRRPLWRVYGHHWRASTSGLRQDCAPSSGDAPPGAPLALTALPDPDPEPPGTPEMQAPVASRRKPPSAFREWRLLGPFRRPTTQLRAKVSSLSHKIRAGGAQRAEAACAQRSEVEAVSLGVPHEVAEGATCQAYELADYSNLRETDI

human α1B‐adrenoceptor [3] = molecular target: T2, human α1B‐adrenoceptor (Homo sapiens, UniProt P35368); assay: ERK1/2‐phosphorylation (Surefire Alphascreen), CHO‐α1B cells; type: cell-based; conditions: for ERK1/2‐phosphorylation % PDBu: maximal response as % PDBu response
T2 construct: expressed in transfected cells; host or cells: CHO-K1
T2 sequence (P35368 1-520): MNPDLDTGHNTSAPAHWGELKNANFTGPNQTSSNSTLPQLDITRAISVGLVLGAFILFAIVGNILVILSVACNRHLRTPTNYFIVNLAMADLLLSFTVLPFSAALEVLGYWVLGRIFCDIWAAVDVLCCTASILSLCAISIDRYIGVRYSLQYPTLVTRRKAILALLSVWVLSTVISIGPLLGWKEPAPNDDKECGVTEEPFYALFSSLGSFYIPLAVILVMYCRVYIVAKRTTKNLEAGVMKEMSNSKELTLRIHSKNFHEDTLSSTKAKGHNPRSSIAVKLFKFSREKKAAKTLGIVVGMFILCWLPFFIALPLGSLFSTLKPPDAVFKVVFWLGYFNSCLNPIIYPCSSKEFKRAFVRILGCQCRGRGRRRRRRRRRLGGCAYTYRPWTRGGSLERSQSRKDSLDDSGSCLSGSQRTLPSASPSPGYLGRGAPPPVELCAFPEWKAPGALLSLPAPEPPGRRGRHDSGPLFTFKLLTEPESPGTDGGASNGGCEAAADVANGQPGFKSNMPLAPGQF

human α1B‐adrenoceptor [4] = molecular target: T2, human α1B‐adrenoceptor; assay: ^3H‐prazosin whole‐cell radioligand binding, CHO‐α1B cells; conditions: CHO‐α1B cells; for Log KD, ^3H‐prazosin binding: whole‐cell binding (from Table 1), given as log KD (negative numbers); for Log KD α1B, ^3H‐prazosin whole cell binding: given as log KD (negative), mean ± SEM
human α1B‐adrenoceptor [5] = molecular target: T2, human α1B‐adrenoceptor; assay: Intracellular free calcium mobilization, CHO‐α1B cells; type: cell-based; conditions: CHO‐α1B cells; response at 100 µM ligand (no EC50 given), % of ionomycin response
[6] = molecular target: T1, human α1D‐adrenoceptor (full length); assay: Intracellular free calcium mobilization, CHO‐α1D cells; type: cell-based; conditions: for Intracellular calcium release % ionomycin: maximal response as % of 10 µM ionomycin
[7] = molecular target: T1, human α1D‐adrenoceptor (full length); assay: ^3H‐prazosin whole‐cell radioligand binding, CHO‐α1D cells
human α1A‐adrenoceptor [8] = molecular target: T3, human α1A‐adrenoceptor (Homo sapiens, UniProt P35348); assay: ERK1/2‐phosphorylation (Surefire Alphascreen), CHO‐α1A cells; type: cell-based
T3 construct: expressed in transfected cells; host or cells: CHO-K1
T3 sequence (P35348 1-466): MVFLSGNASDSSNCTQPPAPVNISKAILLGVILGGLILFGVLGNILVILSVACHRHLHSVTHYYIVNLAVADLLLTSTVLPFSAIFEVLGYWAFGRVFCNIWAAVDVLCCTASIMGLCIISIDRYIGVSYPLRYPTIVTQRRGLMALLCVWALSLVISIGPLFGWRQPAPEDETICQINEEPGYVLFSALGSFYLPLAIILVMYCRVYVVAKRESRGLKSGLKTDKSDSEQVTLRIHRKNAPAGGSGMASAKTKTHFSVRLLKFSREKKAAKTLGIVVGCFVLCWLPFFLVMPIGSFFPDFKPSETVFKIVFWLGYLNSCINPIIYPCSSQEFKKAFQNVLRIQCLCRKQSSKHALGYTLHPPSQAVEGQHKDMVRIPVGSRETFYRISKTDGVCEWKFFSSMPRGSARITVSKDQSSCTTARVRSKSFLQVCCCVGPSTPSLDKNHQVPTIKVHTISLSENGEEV

human α1A‐adrenoceptor [9] = molecular target: T3, human α1A‐adrenoceptor; assay: ^3H‐prazosin whole‐cell radioligand binding, CHO‐α1A cells
human α1A‐adrenoceptor [10] = molecular target: T3, human α1A‐adrenoceptor; assay: Intracellular free calcium mobilization, CHO‐α1A cells; type: cell-based
[11] = test system: parental CHO cell line without any transfected receptors; assay: Forskolin‐stimulated cAMP accumulation, parent CHO cells without transfected receptors; type: cell-based, Chinese hamster
[12] = CHO‐α1D cells, log values given negative
[13] = CHO‐α1D cells, maximal response as % of PDBu
[14] = CHO‐α1B cells, for bi‐phasic responses the initial stimulatory part
[15] = CHO‐α1D cells, given as log KD (negative), mean ± SEM, 'early plateau' = specific binding not fully inhibited

Q: Which results are given for `COc1ccc(OC)c(C(O)CNC(=O)CN)c1` (stereo not drawn) [Midodrine]?
A: ERK1/2-phosphorylation % PDBu [1]: No response; ERK1/2-phosphorylation Log EC50 [1]: No response; ERK1/2‐phosphorylation Log EC50 [2, 12]: No response; ERK1/2‐phosphorylation % PDBu [2, 13]: No response; ERK1/2‐phosphorylation % PDBu at 100 µM (human α1B‐adrenoceptor [3]; CHO‐α1B cells, response at 100 µM ligand (no EC50 given)): 20.4 ± 8.0%; Log KD, ^3H‐prazosin binding (human α1B‐adrenoceptor [4]): No binding; Log KD α1B, ^3H‐prazosin whole cell binding (human α1B‐adrenoceptor [4]): No binding; Intracellular calcium release % Ionomycin at 100 µM (human α1B‐adrenoceptor [5]): 16.9 ± 2.0%; Intracellular calcium release Log EC50 [6, 12]: No response; Intracellular calcium release % ionomycin ([6]; CHO‐α1D cells): No response; 3H‐prazosin binding log IC50 (bound, printed in Log KD column) ([7]; CHO‐α1D cells, whole‐cell binding, given as IC50 > log value): IC50 > −3; pIC50 ([7]; CHO‐α1D cells, printed as IC50> log value): < 3.00; ERK1/2‐phosphorylation % PDBu at 100 µM (human α1A‐adrenoceptor [8]; CHO‐α1A cells, response at 100 μM ligand, no EC50 obtained): 87.7 ± 11.0%

Q: For `C=CCN1CCc2nc(N)sc2CC1` [BHT920], which “ERK1/2-phosphorylation % PDBu at 100μM” value ([1]; response at 100μM only, EC50 not obtainable, % of PDBu (10μM)) is on record?
A: The value was 3.8 ± 1.8%.

Q: What about the “Affinity selectivity ratio α1A vs α1B” value (human α1A‐adrenoceptor [9]) of the same compound?
A: The value was 9.3 fold.

Q: What about the “Affinity selectivity ratio α1A vs α1D” value (human α1A‐adrenoceptor [9]) of the same compound?
A: Its value is 1.6 fold.

Q: What about the “Log KD α1A, ^3H‐prazosin whole cell binding” value (human α1A‐adrenoceptor [9]) of the same compound?
A: The value was −4.70 ± 0.04.

Q: And the “ERK1/2‐phosphorylation Log EC50” value [2]?
A: The value was “No response”.

Q: And the “ERK1/2‐phosphorylation % PDBu” value [2, 13]?
A: The value was “No response”.

Q: What about the “ERK1/2‐phosphorylation Log EC50” value (human α1B‐adrenoceptor [3]) of the same compound?
A: Its value is −5.31 ± 0.04.

Q: And the “ERK1/2‐phosphorylation % PDBu” value (human α1B‐adrenoceptor [3]; [14])?
A: Its value is 12.2 ± 3.6%.

Q: And the “Log KD, ^3H‐prazosin binding” value (human α1B‐adrenoceptor [4])?
A: The value was −3.73.

Q: What about the “Log KD α1B, ^3H‐prazosin whole cell binding” value (human α1B‐adrenoceptor [4]) of the same compound?
A: The value was −3.73 ± 0.04.

Q: What about the “Intracellular calcium release % Ionomycin at 100 µM” value (human α1B‐adrenoceptor [5]) of the same compound?
A: Its value is 16.3 ± 4.5%.

Q: What about the “Intracellular calcium release Log EC50” value [6, 12] of the same compound?
A: The value was “No response”.

Q: What about the “Intracellular calcium release % ionomycin” value ([6]; CHO‐α1D cells) of the same compound?
A: The value was “No response”.

Q: And the “Affinity selectivity ratio α1B vs α1D” value [7]?
A: The value was 5.8 fold.

Q: And the “3H‐prazosin binding Log KD” value ([7]; CHO‐α1D cells, whole‐cell binding (from Table 1), log values given negative)?
A: The value was −4.49.

Q: What about the “Log KD α1D, ^3H‐prazosin whole cell binding” value [7, 15] of the same compound?
A: The value was −4.49 ± 0.07.

Q: What about the “Intracellular calcium release % ionomycin” value (human α1A‐adrenoceptor [10]) of the same compound?
A: The value was 39.7 ± 3.3%.

Q: And the “Intracellular calcium release Log EC50” value (human α1A‐adrenoceptor [10])?
A: Its value is −5.68 ± 0.09.

Q: What about the “Log efficacy ratio KD /EC50” value (human α1A‐adrenoceptor [10]) of the same compound?
A: Its value is 0.98.

Q: What about the “ERK1/2‐phosphorylation % PDBu” value (human α1A‐adrenoceptor [8]) of the same compound?
A: Its value is 61.4 ± 5.5%.

Q: And the “ERK1/2‐phosphorylation Log EC50” value (human α1A‐adrenoceptor [8])?
A: The value was −5.14 ± 0.05.

Q: Which results are given for `COc1ccc(CC(C)NCC(O)c2ccc(O)c(NC=O)c2)cc1` (stereo not drawn) [Formoterol]?
A: Intracellular calcium release Log EC50 [6]: No response; cAMP accumulation (in presence of forskolin) Log EC50 [11]: No response; pKd ([7]; 3H‐prazosin binding Log KD): 5.15; pKd ([7]; Log KD α1D, ^3H‐prazosin whole cell binding): 5.15

Q: Which results are given for `C1COC(NC(C2CC2)C2CC2)=N1` [Rilmenidine]?
A: ERK1/2-phosphorylation % PDBu [1]: No response; ERK1/2-phosphorylation Log EC50 [1]: No response; pKd (human α1A‐adrenoceptor [9]; Log KD α1A, ^3H‐prazosin whole cell binding, CHO‐α1A cells, given as log KD (negative), mean ± SEM): 4.49; Affinity selectivity ratio α1A vs α1B (human α1A‐adrenoceptor [9]; higher affinity for α1A than α1B): >3.1 fold; ERK1/2‐phosphorylation % PDBu [2]: No response; ERK1/2‐phosphorylation Log EC50 [2, 12]: No response; ERK1/2‐phosphorylation Log EC50 (human α1B‐adrenoceptor [3]; [14]): No response; ERK1/2‐phosphorylation % PDBu (human α1B‐adrenoceptor [3]; [14]): No response; pIC50 (human α1B‐adrenoceptor [4]; printed as IC50> log value): < 4.00; Intracellular calcium release % Ionomycin at 100 µM (human α1B‐adrenoceptor [5]): 20.0 ± 3.9%; Intracellular calcium release % Ionomycin at 100 µM [6]: 12.0 ± 0.9%; pKd ([7]; 3H‐prazosin binding Log KD, CHO‐α1D cells, whole‐cell binding (from Table 1), log values given negative): 4.73; pKd [7, 15]: 4.73; Affinity selectivity ratio α1A vs α1D ([7]; higher affinity for α1D than α1A): 1.7 fold; Affinity selectivity ratio α1B vs α1D ([7]; higher affinity for α1D than α1B): >5.4 fold; Log efficacy ratio KD /EC50 (human α1A‐adrenoceptor [10]; CHO‐α1A cells, binding KD and calcium EC50): 1.19; EC50 (human α1A‐adrenoceptor [10]; CHO‐α1A cells, given as log EC50 (negative), read-out: Intracellular calcium release Log EC50 (converted)): 2.09 µM; Intracellular calcium release % ionomycin (human α1A‐adrenoceptor [10]; CHO‐α1A cells, maximal response as % of 10 µM ionomycin): 45.9 ± 3.8%; ERK1/2‐phosphorylation % PDBu at 10 µM (human α1A‐adrenoceptor [8]; CHO‐α1A cells, response at 10 μM ligand, no EC50 obtained): 89.0 ± 3.9%
